# Results: ChEMBL document CHEMBL1145498, “A systematic interaction map of validated kinase inhibitors with Ser/Thr kinases” (Proc Natl Acad Sci U S A, 2007)
# How the values were obtained:
# [1] = target: Ribosomal protein S6 kinase alpha-3 (Homo sapiens) (UniProt P51812)
# [2] = target: Calcium/calmodulin-dependent protein kinase type 1D (Homo sapiens) (UniProt Q8IU85)
# [3] = target: Dual specificity protein kinase CLK1 (Homo sapiens) (UniProt P49759)
# [4] = target: T1, Lymphokine-activated killer T-cell-originated protein kinase (Homo sapiens) (UniProt Q96KB5)
# T1 sequence (whole entry): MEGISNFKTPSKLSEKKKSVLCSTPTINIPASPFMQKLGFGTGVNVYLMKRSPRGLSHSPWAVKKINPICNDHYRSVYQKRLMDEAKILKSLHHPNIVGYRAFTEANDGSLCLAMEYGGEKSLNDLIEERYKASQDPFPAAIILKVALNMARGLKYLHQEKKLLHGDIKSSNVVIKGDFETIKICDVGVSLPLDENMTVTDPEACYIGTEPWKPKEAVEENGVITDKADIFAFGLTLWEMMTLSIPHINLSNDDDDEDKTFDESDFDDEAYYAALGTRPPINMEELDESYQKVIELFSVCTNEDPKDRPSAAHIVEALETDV
# [5] = target: Casein kinase I isoform gamma-3 (Homo sapiens) (UniProt Q9Y6M4)
# Chain of Casein kinase I isoform gamma-3 (Homo sapiens) (Q9Y6M4 whole entry, looked up, canonical isoform): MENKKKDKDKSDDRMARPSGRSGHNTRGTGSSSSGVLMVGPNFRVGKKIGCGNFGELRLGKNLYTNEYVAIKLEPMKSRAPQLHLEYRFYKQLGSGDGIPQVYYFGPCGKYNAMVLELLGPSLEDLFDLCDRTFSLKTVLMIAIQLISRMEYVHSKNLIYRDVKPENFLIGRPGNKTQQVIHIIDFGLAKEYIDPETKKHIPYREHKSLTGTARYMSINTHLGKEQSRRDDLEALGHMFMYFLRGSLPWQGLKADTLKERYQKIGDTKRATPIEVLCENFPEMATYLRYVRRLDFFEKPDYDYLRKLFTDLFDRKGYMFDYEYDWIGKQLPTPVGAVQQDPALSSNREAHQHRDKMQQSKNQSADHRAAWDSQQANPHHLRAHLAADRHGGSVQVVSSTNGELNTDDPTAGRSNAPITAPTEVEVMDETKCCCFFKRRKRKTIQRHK
# [6] = target: Serine/threonine-protein kinase OSR1 (Homo sapiens) (UniProt O95747)
# [7] = target: Mitogen-activated protein kinase 6 (Homo sapiens) (UniProt Q16659)
# Chain of Mitogen-activated protein kinase 6 (Homo sapiens) (Q16659 whole entry, canonical isoform): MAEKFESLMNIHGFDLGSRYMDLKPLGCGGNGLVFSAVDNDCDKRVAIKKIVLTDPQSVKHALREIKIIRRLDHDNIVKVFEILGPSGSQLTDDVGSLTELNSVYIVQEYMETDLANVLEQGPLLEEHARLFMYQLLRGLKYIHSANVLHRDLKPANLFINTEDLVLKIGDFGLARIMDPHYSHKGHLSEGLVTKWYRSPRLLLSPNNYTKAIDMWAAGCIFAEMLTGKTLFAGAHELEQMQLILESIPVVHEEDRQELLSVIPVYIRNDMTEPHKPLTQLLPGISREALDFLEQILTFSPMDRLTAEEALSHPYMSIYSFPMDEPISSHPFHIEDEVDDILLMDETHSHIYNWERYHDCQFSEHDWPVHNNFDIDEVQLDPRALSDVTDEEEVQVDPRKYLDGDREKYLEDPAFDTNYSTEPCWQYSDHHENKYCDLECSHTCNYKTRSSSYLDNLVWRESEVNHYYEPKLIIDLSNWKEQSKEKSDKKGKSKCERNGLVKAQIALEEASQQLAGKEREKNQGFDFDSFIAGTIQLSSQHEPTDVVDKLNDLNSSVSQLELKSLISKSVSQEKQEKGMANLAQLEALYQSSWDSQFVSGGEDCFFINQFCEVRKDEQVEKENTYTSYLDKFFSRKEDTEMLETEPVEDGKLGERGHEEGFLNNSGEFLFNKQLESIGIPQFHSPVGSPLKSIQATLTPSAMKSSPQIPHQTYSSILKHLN
# [8] = target: Casein kinase I isoform gamma-2 (Homo sapiens) (UniProt P78368)
# [9] = target: Glycogen synthase kinase-3 beta (Homo sapiens, UniProt P49841)
# [10] = target: TRAF2 and NCK-interacting protein kinase (Homo sapiens) (UniProt Q9UKE5)
# [11] = target: Cyclin-dependent kinase 2 (Homo sapiens, UniProt P24941)
# [12] = target: Dual specificity protein kinase CLK3 (Homo sapiens) (UniProt P49761)
# [13] = target: Death-associated protein kinase 3 (Homo sapiens) (UniProt O43293)
# [14] = target: Casein kinase I isoform gamma-1 (Homo sapiens) (UniProt Q9HCP0)
# [15] = target: Serine/threonine-protein kinase PAK 6 (Homo sapiens) (UniProt Q9NQU5)
# [16] = target: Calcium/calmodulin-dependent protein kinase type II subunit alpha (Homo sapiens) (UniProt Q9UQM7)
# Chain of Calcium/calmodulin-dependent protein kinase type II subunit alpha (Homo sapiens) (Q9UQM7 whole entry): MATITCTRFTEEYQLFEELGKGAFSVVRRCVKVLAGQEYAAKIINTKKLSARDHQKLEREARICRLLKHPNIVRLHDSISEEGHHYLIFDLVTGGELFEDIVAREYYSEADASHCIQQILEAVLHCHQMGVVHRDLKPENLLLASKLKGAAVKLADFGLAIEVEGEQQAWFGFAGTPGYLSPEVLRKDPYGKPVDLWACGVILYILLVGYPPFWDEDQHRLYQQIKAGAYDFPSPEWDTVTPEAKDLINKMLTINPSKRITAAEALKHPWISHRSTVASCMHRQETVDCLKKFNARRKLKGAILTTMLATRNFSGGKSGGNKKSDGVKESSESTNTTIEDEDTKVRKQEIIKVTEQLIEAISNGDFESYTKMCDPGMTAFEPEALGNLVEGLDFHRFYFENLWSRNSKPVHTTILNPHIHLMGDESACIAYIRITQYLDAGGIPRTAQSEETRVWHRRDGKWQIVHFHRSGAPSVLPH
# [17] = target: 5'-AMP-activated protein kinase catalytic subunit alpha-2 (Homo sapiens) (UniProt P54646)
# Chain of 5'-AMP-activated protein kinase catalytic subunit alpha-2 (Homo sapiens) (P54646 whole entry, looked up): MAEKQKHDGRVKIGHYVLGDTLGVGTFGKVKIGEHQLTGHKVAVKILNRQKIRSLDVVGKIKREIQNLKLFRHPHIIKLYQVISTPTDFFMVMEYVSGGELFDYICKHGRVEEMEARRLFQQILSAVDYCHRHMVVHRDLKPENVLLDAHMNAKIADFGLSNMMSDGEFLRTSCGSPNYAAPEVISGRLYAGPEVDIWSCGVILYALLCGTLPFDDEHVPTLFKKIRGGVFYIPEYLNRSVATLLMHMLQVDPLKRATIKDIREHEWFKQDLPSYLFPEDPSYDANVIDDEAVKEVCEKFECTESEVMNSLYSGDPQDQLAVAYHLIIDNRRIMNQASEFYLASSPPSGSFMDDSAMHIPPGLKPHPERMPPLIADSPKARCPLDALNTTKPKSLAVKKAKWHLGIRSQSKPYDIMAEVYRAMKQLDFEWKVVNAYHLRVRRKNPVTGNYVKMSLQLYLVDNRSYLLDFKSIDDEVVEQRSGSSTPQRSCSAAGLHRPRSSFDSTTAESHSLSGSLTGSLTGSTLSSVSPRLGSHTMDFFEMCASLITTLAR
# [18] = target: Dual specificity protein kinase CLK2 (Homo sapiens) (UniProt P49760)
# Chain of Dual specificity protein kinase CLK2 (Homo sapiens) (P49760 whole entry, looked up): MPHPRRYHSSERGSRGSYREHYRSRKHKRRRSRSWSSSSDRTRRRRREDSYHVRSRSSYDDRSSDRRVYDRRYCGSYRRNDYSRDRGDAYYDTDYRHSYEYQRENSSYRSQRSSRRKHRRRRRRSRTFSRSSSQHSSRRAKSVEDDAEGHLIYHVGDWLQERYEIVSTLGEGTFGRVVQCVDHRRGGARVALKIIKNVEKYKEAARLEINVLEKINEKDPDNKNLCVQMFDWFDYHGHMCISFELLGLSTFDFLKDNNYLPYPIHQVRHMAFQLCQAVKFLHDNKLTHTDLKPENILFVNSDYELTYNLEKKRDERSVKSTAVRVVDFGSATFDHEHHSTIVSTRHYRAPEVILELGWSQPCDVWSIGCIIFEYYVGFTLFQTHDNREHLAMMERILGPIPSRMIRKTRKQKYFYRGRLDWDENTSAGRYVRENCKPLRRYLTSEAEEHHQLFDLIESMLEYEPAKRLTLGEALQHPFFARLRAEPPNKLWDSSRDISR
# [19] = target: Cyclin-dependent kinase 6 (Homo sapiens) (UniProt Q00534)
# Chain of Cyclin-dependent kinase 6 (Homo sapiens) (Q00534 whole entry): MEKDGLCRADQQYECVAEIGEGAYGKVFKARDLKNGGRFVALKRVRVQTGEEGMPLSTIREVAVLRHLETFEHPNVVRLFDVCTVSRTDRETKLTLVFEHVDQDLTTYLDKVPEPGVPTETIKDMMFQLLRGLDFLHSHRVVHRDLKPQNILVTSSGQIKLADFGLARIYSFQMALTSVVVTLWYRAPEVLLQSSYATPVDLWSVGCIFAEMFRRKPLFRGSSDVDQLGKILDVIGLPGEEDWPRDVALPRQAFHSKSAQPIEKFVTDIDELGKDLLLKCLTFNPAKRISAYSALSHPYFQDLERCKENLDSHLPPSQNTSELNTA
# [20] = target: T2, Mitogen-activated protein kinase kinase kinase 5 (Homo sapiens) (UniProt Q99683)
# T2 sequence (whole entry): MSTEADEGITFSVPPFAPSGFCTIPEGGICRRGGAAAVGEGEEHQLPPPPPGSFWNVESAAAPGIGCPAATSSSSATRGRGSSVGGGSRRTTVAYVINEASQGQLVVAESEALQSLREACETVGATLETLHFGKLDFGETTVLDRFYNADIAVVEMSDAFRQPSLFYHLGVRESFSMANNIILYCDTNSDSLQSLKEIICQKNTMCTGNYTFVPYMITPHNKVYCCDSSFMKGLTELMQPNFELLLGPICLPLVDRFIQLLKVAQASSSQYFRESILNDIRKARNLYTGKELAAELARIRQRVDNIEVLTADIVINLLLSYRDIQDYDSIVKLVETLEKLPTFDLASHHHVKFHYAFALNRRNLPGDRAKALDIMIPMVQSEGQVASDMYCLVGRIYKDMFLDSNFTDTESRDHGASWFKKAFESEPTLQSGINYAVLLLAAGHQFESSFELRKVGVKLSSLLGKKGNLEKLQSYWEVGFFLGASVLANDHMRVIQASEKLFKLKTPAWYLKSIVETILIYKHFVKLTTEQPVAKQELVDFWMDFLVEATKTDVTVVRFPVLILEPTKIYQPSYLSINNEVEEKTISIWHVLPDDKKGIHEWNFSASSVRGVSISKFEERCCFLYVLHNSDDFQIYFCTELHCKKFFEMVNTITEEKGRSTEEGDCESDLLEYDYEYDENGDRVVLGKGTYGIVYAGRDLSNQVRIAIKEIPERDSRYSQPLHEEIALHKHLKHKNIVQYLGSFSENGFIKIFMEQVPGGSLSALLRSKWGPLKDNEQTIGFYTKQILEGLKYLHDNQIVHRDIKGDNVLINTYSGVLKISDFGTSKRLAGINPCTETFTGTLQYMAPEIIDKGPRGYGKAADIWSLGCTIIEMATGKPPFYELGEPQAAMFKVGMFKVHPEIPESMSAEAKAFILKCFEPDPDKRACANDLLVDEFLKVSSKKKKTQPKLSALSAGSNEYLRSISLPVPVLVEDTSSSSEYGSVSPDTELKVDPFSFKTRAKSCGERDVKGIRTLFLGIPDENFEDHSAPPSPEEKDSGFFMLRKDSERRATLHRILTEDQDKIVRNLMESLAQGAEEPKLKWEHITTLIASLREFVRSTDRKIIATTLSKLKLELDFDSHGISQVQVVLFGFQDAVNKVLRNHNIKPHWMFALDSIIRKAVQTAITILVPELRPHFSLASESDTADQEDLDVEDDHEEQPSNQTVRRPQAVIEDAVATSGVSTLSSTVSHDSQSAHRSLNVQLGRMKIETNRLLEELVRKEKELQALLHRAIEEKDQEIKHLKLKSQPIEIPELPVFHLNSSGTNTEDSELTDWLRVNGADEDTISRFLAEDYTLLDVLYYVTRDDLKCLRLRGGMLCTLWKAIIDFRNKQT
# Chain of Ribosomal protein S6 kinase alpha-3 (Homo sapiens) (P51812 whole entry): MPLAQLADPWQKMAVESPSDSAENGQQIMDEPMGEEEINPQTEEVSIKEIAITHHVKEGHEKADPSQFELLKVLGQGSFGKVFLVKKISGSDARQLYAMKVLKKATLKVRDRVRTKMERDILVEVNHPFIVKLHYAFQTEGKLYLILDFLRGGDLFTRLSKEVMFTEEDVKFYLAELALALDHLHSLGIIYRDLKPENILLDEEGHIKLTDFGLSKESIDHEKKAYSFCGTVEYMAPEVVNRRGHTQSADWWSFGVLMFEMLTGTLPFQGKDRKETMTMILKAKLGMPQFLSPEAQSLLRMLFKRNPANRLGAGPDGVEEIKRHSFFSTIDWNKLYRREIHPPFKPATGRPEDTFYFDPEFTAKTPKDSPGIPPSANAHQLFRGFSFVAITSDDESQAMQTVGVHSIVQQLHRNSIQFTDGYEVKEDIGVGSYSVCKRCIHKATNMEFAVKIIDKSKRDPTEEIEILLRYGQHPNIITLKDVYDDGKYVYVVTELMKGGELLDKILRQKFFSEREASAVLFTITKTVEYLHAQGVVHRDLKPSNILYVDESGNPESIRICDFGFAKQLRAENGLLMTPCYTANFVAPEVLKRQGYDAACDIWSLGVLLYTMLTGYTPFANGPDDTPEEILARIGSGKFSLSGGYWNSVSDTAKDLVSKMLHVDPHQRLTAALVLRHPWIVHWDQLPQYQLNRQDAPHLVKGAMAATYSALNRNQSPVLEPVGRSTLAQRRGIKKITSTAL
# Chain of Calcium/calmodulin-dependent protein kinase type 1D (Homo sapiens) (Q8IU85 whole entry, looked up): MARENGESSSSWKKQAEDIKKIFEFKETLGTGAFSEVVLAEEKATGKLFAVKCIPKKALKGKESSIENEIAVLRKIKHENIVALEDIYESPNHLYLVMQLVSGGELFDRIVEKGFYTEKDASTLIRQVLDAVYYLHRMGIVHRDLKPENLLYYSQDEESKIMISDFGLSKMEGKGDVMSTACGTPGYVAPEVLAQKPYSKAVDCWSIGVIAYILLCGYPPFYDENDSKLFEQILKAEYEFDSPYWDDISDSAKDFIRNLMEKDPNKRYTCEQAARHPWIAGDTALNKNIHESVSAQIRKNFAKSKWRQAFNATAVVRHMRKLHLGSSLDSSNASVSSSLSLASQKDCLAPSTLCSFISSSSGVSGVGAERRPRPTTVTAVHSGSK
# Chain of Dual specificity protein kinase CLK1 (Homo sapiens) (P49759 whole entry, looked up): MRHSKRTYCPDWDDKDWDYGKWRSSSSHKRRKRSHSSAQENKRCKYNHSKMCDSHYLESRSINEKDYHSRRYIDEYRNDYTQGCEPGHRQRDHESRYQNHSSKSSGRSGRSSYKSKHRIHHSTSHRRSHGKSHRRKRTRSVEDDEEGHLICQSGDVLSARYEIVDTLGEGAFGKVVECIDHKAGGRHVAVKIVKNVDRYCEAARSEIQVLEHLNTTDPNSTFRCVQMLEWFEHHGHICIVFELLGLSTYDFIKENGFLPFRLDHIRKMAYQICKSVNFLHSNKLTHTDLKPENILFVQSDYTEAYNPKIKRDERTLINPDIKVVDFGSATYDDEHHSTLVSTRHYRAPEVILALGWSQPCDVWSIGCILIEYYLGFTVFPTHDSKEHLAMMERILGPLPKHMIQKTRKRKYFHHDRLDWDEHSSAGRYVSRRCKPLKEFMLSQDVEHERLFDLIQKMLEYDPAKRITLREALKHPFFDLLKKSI
SMILES,ΔTm [1] [°C],ΔTm [2] [°C],ΔTm [3] [°C],ΔTm [5] [°C],ΔTm [6] [°C],ΔTm [7] [°C],ΔTm [8] [°C],ΔTm [9] [°C],ΔTm [10] [°C],ΔTm [11] [°C],ΔTm [12] [°C],ΔTm [14] [°C],ΔTm [15] [°C],ΔTm [16] [°C],ΔTm [17] [°C],ΔTm [18] [°C],ΔTm [19] [°C],ΔTm [20] [°C],ΔTm [4] [°C],ΔTm [13] [°C]
CC(C)(C)c1cc(C=C2C(=O)C=CC2=O)cc(C(C)(C)C)c1O,0.5,-2.2,0,0.2,0.3,-0.7,0.5,-4,-3.1,1.2,0.1,0.9,-2.5,0.3,-0.1,0.4,-6.6,0.1,-0.1,-0.4
O=C(O)/C=C/c1cc(CO)ccc1CO,0.3,0.1,0.2,0.4,0.5,0.3,0.4,0.1,0.8,0.9,0,0.7,-0.4,-0.1,0.7,0.6,0.3,1.2,0.8,0.8
C[C@@H](N)[C@H]1CC[C@H](C(=O)Nc2ccncc2)CC1,–,0.6,2.1,0.4,-0.4,-0.1,0.6,0.6,0.1,0.5,1,0.6,-0.2,-0.3,0.5,0.2,1,1.1,0.9,1
Nc1nc(Nc2ccc(S(N)(=O)=O)cc2)nn1C(=S)Nc1c(F)cccc1F,9.6,3.1,11.5,5.3,5.6,2.1,4.9,8,9.9,15.9,14.7,–,5.6,3.3,10.1,8.9,4.6,16.8,-0.2,3

# Second part, led by results:
ΔTm [1] [°C],ΔTm [2] [°C],ΔTm [3] [°C],ΔTm [5] [°C],ΔTm [6] [°C],ΔTm [7] [°C],ΔTm [8] [°C],ΔTm [9] [°C],ΔTm [10] [°C],ΔTm [11] [°C],ΔTm [12] [°C],ΔTm [14] [°C],ΔTm [15] [°C],ΔTm [16] [°C],ΔTm [17] [°C],ΔTm [18] [°C],ΔTm [19] [°C],ΔTm [20] [°C],SMILES,ΔTm [4] [°C],ΔTm [13] [°C]
0.6,0.2,1,0.5,0.7,0.4,0.7,2.6,0.8,0.9,0.5,0.4,-0.4,0.4,-0.2,0.7,0.4,-0.2,N#C/C(=C\c1ccc(O)c(O)c1)C(=O)NCc1ccccc1,0.7,1.8
-1,-0.1,0.1,0.3,0,-0.4,0.3,-0.4,0,0.4,0.2,0.6,-0.1,0.4,-0.8,-0.1,-0.3,-0.1,O=C(O)c1cc(NCc2cc(O)ccc2O)ccc1O,0,-0.4
–,1.4,5.9,3.4,1.4,2,2.5,11.4,3.4,6.3,4.9,3.7,1.6,2.6,6,4.4,3.5,3.6,N#C/C(=C1/Nc2ccccc2S1)c1ccnc(NCCc2cccnc2)n1,0.8,1.6
